Test results reported in US11472791B2 (Incyte Corporation, priority 2019, dated 2022).

What follows are compounds tested against CDK2/Cyclin E1 (Homo sapiens (Human), UniProt P24941) (assay: CDK2/Cyclin E1 HTRF enzyme activity assay). Conditions: 1 mM ATP.
Format: biochemical
Experimental: Assays are conducted in white 384-well polystyrene plates in a final reaction volume of 8 μL. […] HTRF signals are read after 1 hour at room temperature on a PHERAstar FS plate reader (BMG Labtech). Data is analyzed with IDBS XLFit and GraphPad Prism 5.0 software using a three or four parameter dose response curve to determine IC50 for each compound.

IC50, < 50 nM:
CCN(CC)C1CCC(S(=O)(=O)N2CCC(Nc3ncc(C(F)(F)F)c(-c4cnn(CC(C)(C)O)c4)n3)CC2)CC1 (single isomer, unassigned) [89 (peak 2), 1-(4-(2-((1-((4-(Diethylamino)cyclohexyl)sulfonyl)piperidin-4-yl)amino)-5-(trifluoromethyl)pyrimidin-4-yl)-1H-pyrazol-1-yl)-2-methylpropan-2-ol]
CC(C)(O)Cn1cc(-c2nc(NC3CCN(S(=O)(=O)C4CCC(N5CCC5)CC4)CC3)ncc2C(F)(F)F)cn1 (single isomer, unassigned) [90 (peak 1), 1-(4-(2-((1-((4-(Azetidin-1-yl)cyclohexyl)sulfonyl)piperidin-4-yl)amino)-5-(trifluoromethyl)pyrimidin-4-yl)-1H-pyrazol-1-yl)-2-methylpropan-2-ol]
CC(C)(O)Cn1cc(-c2nc(NC3CCN(S(=O)(=O)C4CCC(N5CCC5)CC4)CC3)ncc2C(F)(F)F)cn1 (single isomer, unassigned) [90 (peak 2), 1-(4-(2-((1-((4-(Azetidin-1-yl)cyclohexyl)sulfonyl)piperidin-4-yl)amino)-5-(trifluoromethyl)pyrimidin-4-yl)-1H-pyrazol-1-yl)-2-methylpropan-2-ol]
CC(C)(O)Cn1cc(-c2nc(NC3CCN(S(=O)(=O)C4CCC(N5CCCC5)CC4)CC3)ncc2C(F)(F)F)cn1 (single isomer, unassigned) [91 (peak 1), 2-Methyl-1-(4-(2-((1-((4-(pyrrolidin-1-yl)cyclohexyl)sulfonyl)piperidin-4-yl)amino)-5-(trifluoromethyl)pyrimidin-4-yl)-1H-pyrazol-1-yl)propan-2-ol]
CC(C)(O)Cn1cc(-c2nc(NC3CCN(S(=O)(=O)C4CCC(N5CCCC5)CC4)CC3)ncc2C(F)(F)F)cn1 (single isomer, unassigned) [91 (peak 2), 2-Methyl-1-(4-(2-((1-((4-(pyrrolidin-1-yl)cyclohexyl)sulfonyl)piperidin-4-yl)amino)-5-(trifluoromethyl)pyrimidin-4-yl)-1H-pyrazol-1-yl)propan-2-ol]
O=S(=O)(c1cn[nH]c1)N1CCC(Nc2ncc(C(F)(F)F)c(-c3cnn(CC(F)(F)F)c3)n2)CC1 [Example 2, N-(1-((1H-Pyrazol-4-yl)sulfonyl)piperidin-4-yl)-4-(1-(2,2,2-trifluoroethyl)-1H-pyrazol-4-yl)-5-(trifluoromethyl)pyrimidin-2-amine]
CS(=O)(=O)N1CCC(Nc2ncc(C(F)(F)F)c(-c3cnn(C4CCOCC4)c3)n2)CC1 [Example 3, N-(1-(Methylsulfonyl)piperidin-4-yl)-4-(1-(tetrahydro-2H-pyran-4-yl)-1H-pyrazol-4-yl)-5-(trifluoromethyl)pyrimidin-2-amine]
N#CCS(=O)(=O)N1CCC(Nc2ncc(C(F)(F)F)c(-c3cnn(C4CCOCC4)c3)n2)CC1 [Example 4, 2-((4-((4-(1-(Tetrahydro-2H-pyran-4-yl)-1H-pyrazol-4-yl)-5-(trifluoromethyl)pyrimidin-2-yl)amino)piperidin-1-yl)sulfonyl)acetonitrile]
O=S(=O)(Cc1ccccc1)N1CCC(Nc2ncc(C(F)(F)F)c(-c3cnn(C4CCOCC4)c3)n2)CC1 [Example 5, N-(1-(Benzylsulfonyl)piperidin-4-yl)-4-(1-(tetrahydro-2H-pyran-4-yl)-1H-pyrazol-4-yl)-5-(trifluoromethyl)pyrimidin-2-amine]
O=S(=O)(C1CCOCC1)N1CCC(Nc2ncc(C(F)(F)F)c(-c3cnn(C4CCOCC4)c3)n2)CC1 [Example 6, 4-(1-(Tetrahydro-2H-pyran-4-yl)-1H-pyrazol-4-yl)-N-(1-((tetrahydro-2H-pyran-4-yl)sulfonyl)piperidin-4-yl)-5-(trifluoromethyl)pyrimidin-2-amine]
